Literature values, collected in US12673009B2, “Dental material” (King's College London, priority 2020, dated 2026).

What was measured:
[1] = Tylkowski et al., 2013

## [Li] [lithium]
other
  safe therapeutic range of blood levels for patients on lithium therapies: 4.2-8.3 ppm
[1]
  lithium concentration reported to be toxic: ~700 ppm
